pEC50, pIC50, pKi: −log10 of the molar value.
Legend:
[1] = target: T1, Metabotropic glutamate receptor 2 (Rattus norvegicus, UniProt P31421); test: Binding affinity towards metabotropic glutamate receptor 2 of rat expressed in CHO cells was determined by using [3H]MGS-0008; format: cell-based
[2] = target: T1, Metabotropic glutamate receptor 2; test: Concentration required to inhibit metabotropic glutamate receptor 2 activity of rat expressed in CHO cells; format: cell-based
[3] = target: Metabotropic glutamate receptor 3 (Rattus norvegicus, UniProt P31422); test: Binding affinity towards metabotropic glutamate receptor 3 of rat expressed in CHO cells was determined by using [3H]MGS-0008; format: cell-based
[4] = target: T1, Metabotropic glutamate receptor 2; test: Effective concentration for agonistic activity towards metabotropic glutamate receptor 2 of rat expressed in CHO cells; format: functional, cell-based
[5] = target: T2, Metabotropic glutamate receptor 1 (Rattus norvegicus, UniProt P23385); test: Effective concentration for agonistic activity towards metabotropic glutamate receptor 1 of rat expressed in CHO cells; format: functional, cell-based
[6] = target: T3, Metabotropic glutamate receptor 5 (Rattus norvegicus, UniProt P31424); test: Effective concentration for agonistic activity towards metabotropic glutamate receptor 5 of rat expressed in CHO cells; format: functional, cell-based
[7] = target: T4, Metabotropic glutamate receptor 6 (Rattus norvegicus, UniProt P35349); test: Effective concentration for agonistic activity towards metabotropic glutamate receptor 6 of rat expressed in CHO cells; format: functional, cell-based
[8] = target: T2, Metabotropic glutamate receptor 1; test: Concentration required to inhibit metabotropic glutamate receptor 1 activity of rat expressed in CHO cells; format: cell-based
[9] = target: Metabotropic glutamate receptor 4 (Rattus norvegicus, UniProt P31423); test: Concentration required to inhibit metabotropic glutamate receptor 4 activity of rat expressed in CHO cells; format: cell-based
[10] = target: T3, Metabotropic glutamate receptor 5; test: Concentration required to inhibit metabotropic glutamate receptor 5 activity of rat expressed in CHO cells; format: cell-based
[11] = target: T4, Metabotropic glutamate receptor 6; test: Concentration required to inhibit metabotropic glutamate receptor 6 activity of rat expressed in CHO cells; format: cell-based
[12] = target: Metabotropic glutamate receptor 7 (Rattus norvegicus, UniProt P35400); test: Binding affinity towards metabotropic glutamate receptor 7 of rat expressed in CHO cells was determined by using [3H]LY341495

Chain of Metabotropic glutamate receptor 3 (P31422 whole entry): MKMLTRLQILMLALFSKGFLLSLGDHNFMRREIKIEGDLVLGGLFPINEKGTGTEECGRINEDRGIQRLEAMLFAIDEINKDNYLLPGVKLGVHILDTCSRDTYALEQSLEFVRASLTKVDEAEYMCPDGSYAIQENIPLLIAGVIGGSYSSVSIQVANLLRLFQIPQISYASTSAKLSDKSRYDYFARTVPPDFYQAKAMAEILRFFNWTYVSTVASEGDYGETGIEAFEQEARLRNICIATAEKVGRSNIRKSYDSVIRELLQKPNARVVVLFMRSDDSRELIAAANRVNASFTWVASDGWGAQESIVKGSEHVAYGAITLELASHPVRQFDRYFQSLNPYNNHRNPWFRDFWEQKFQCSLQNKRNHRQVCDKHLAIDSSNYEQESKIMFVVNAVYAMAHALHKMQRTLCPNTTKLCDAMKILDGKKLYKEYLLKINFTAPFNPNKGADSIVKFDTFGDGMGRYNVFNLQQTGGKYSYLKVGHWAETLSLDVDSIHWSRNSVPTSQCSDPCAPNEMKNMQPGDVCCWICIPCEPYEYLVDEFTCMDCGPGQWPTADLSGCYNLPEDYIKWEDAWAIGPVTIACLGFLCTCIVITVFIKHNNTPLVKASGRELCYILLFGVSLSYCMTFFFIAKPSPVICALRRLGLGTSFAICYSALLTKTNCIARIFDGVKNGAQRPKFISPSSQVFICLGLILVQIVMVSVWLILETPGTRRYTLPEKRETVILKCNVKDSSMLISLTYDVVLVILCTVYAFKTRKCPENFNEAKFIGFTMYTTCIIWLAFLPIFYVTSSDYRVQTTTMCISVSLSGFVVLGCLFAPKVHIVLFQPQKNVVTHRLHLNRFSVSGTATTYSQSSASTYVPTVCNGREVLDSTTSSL
T1 sequence (P31421 whole entry): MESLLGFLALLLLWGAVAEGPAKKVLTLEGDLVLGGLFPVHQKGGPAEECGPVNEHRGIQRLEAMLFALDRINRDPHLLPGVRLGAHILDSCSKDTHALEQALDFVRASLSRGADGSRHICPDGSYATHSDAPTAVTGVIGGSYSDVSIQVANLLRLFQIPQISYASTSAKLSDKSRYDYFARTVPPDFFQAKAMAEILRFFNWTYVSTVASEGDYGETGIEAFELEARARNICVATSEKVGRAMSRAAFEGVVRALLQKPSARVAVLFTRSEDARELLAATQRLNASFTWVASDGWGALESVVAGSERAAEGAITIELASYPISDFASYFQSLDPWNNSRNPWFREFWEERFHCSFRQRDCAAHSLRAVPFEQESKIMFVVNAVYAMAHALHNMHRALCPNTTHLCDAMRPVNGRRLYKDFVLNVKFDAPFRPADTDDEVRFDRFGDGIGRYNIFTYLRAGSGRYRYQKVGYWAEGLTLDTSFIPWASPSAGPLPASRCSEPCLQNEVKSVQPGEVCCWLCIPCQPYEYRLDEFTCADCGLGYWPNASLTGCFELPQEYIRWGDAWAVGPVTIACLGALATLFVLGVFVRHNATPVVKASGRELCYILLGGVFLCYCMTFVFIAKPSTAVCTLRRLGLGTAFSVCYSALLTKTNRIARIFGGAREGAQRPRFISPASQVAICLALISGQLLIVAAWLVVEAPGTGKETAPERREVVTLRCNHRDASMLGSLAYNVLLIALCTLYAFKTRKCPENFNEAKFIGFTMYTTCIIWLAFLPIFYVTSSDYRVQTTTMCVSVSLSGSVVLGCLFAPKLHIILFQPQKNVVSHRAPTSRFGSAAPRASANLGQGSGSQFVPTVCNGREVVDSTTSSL
T3 sequence (P31424 whole entry): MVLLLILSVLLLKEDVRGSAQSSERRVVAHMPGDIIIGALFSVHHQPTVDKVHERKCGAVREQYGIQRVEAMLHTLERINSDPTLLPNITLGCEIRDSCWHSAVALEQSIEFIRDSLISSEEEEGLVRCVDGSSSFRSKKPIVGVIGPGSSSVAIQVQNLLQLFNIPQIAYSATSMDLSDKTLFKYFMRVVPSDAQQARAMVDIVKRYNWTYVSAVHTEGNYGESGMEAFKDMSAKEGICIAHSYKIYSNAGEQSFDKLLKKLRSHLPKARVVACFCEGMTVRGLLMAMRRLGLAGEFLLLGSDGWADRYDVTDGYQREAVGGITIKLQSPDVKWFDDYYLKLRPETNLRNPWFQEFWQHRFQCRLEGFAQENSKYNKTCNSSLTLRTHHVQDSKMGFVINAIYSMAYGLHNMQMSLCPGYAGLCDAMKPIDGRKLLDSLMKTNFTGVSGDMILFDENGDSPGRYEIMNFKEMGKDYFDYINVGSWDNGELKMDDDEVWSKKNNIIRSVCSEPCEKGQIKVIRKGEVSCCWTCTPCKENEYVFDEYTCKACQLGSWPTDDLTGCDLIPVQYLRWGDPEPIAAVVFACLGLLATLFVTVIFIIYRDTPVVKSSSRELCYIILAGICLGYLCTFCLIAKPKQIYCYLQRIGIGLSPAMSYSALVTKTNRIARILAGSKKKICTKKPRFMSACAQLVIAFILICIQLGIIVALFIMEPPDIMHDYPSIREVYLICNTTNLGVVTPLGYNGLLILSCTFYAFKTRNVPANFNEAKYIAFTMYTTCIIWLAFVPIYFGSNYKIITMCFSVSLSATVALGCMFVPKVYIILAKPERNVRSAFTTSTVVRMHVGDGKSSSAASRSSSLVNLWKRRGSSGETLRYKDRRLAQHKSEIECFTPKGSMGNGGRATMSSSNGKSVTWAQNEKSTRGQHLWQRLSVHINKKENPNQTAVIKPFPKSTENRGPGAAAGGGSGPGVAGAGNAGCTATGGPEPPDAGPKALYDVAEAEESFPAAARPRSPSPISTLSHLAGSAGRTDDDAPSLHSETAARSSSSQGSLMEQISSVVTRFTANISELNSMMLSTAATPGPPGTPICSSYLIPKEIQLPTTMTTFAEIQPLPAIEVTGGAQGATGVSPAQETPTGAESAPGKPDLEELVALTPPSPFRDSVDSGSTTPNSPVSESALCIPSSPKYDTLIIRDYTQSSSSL
T4 sequence (P35349 whole entry): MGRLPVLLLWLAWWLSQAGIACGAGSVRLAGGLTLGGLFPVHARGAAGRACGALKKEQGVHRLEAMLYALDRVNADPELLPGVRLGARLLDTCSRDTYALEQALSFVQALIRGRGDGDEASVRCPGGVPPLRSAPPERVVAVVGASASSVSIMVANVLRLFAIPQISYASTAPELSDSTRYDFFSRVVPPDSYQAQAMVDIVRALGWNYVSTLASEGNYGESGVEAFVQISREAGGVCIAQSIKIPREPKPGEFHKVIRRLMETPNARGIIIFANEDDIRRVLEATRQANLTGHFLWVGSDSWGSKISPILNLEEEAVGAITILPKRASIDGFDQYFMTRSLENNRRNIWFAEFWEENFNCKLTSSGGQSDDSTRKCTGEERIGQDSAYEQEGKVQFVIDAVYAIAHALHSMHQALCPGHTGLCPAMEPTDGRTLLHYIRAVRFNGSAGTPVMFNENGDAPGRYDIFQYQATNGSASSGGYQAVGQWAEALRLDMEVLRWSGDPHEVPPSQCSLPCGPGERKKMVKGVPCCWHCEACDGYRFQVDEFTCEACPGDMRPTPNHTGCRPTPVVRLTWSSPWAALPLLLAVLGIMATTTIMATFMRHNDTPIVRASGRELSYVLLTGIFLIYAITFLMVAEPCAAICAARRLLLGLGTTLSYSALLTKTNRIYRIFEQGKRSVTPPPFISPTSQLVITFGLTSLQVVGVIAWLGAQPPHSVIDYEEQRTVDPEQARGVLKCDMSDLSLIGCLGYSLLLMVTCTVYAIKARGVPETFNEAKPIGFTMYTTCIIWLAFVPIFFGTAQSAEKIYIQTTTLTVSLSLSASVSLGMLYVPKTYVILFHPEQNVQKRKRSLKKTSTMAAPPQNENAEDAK
T2 sequence (P23385 whole entry): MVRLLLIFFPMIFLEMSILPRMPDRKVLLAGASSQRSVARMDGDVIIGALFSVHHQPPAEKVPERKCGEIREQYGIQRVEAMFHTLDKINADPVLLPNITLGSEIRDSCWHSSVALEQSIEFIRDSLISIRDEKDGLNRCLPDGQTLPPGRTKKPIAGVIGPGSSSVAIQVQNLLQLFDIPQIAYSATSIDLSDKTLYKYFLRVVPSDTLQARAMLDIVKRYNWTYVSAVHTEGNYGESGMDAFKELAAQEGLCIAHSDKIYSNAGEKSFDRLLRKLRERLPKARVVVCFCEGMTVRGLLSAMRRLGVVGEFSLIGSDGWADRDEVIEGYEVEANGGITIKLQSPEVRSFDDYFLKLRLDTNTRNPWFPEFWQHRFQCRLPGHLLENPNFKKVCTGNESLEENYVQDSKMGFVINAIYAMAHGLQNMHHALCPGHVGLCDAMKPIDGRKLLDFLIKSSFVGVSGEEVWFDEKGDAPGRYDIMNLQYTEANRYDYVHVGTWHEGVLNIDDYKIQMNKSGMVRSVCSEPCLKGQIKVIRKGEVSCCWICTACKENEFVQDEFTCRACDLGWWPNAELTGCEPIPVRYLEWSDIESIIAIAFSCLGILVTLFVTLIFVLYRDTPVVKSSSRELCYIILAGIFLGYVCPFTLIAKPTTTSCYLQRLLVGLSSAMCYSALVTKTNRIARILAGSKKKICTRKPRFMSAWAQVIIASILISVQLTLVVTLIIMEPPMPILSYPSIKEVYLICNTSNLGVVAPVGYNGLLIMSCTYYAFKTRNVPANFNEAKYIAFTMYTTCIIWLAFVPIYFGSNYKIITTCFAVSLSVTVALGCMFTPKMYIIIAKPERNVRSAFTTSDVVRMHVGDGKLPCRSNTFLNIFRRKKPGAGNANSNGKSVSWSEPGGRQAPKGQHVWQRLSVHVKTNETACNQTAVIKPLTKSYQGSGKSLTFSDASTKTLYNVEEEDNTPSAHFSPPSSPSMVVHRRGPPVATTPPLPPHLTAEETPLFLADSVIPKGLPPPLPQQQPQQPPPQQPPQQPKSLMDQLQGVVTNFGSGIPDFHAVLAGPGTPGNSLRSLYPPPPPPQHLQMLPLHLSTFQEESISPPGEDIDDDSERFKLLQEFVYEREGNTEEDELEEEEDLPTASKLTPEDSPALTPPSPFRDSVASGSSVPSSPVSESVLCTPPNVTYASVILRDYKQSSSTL

Row | pKi [1] | SMILES | also measured
1 | 7.84 | N[C@]1(C(=O)O)[C@H]2[C@@H](C[C@H]1OCc1cc(F)ccc1F)[C@]2(F)C(=O)O | 
2 | 8.15 | N[C@]1(C(=O)O)[C@H]2[C@@H](C[C@H]1OCc1ccccc1)[C@]2(F)C(=O)O | pIC50 [2]: 6.88; pKi [3]: 7.80
3 | 7.48 | N[C@@]1(C(=O)O)[C@H](O)C[C@@H]2[C@H]1[C@@]2(F)C(=O)O | pEC50 [4]: < 4.00; pKi [3]: 7.17
4 | 8.24 | N[C@]1(C(=O)O)[C@H]2[C@@H](C[C@H]1OCc1cccc(C(F)(F)F)c1)[C@]2(F)C(=O)O | 
5 | 8.43 | N[C@]1(C(=O)O)[C@H]2[C@@H](C[C@H]1OC(c1ccc(Cl)cc1)c1ccc(Cl)cc1)[C@]2(F)C(=O)O | 
6 | 7.77 | N[C@@]1(C(=O)O)[C@@H](OCc2ccc(Cl)c(Cl)c2)C[C@@H]2[C@H]1[C@@]2(F)C(=O)O | 
7 | 7.41 | CO[C@@H]1C[C@@H]2[C@H]([C@]1(N)C(=O)O)[C@@]2(F)C(=O)O | pKi [3]: 7.06
8 | 8.03 | N[C@]1(C(=O)O)[C@H]2[C@@H](C[C@H]1OCc1cccc(-c3ccccc3)c1)[C@]2(F)C(=O)O | 
9 | 8.48 | N[C@]1(C(=O)O)[C@H]2[C@@H](C[C@H]1OCc1cccc(Cl)c1)[C@]2(F)C(=O)O | 
10 | 7.93 | N[C@]1(C(=O)O)[C@H]2[C@@H](C[C@H]1OCc1cc(Cl)ccc1Cl)[C@]2(F)C(=O)O | 
11 | 8.33 | N[C@]1(C(=O)O)[C@H]2[C@@H](C[C@H]1OCc1cccc(Br)c1)[C@]2(F)C(=O)O | 
12 | 8.44 | N[C@]1(C(=O)O)[C@H]2[C@@H](C[C@H]1OCc1cc(Cl)c(Cl)c(Cl)c1)[C@]2(F)C(=O)O | 
13 | 8.34 | Cc1cccc(CO[C@@H]2C[C@@H]3[C@H]([C@]2(N)C(=O)O)[C@@]3(F)C(=O)O)c1 | 
14 | 8.37 | N[C@]1(C(=O)O)[C@H]2[C@@H](C[C@H]1OCc1c(Cl)cccc1Cl)[C@]2(F)C(=O)O | 
15 |  | N[C@](CC1c2ccccc2Oc2ccccc21)(C(=O)O)[C@H]1C[C@@H]1C(=O)O | pEC50 [5]: < 4.00; pEC50 [6]: < 4.00; pEC50 [7]: < 4.00; pIC50 [8]: 5.05; pIC50 [9]: 5.58; pIC50 [10]: 4.94; pIC50 [11]: 5.94; pKi [12]: 6.96
